The values that follow come from publication PMC7155171, “Probing the Open Global Health Chemical Diversity Library for Multistage-Active Starting Points for Next-Generation Antimalarials” (ACS Infectious Diseases, 2020).

Molecules are shown by their SMILES. pIC50: −log10 of the molar value. Where two headings read alike, the source gives them in different places.

As usually defined, the IC50 is the concentration at which inhibition is half-maximal. By pIC50 is commonly meant the negative decadic logarithm of the IC50, by convention in mol/L.

For data set [1], the system named is P. falciparum Dd2 (PfLuc) line expressing firefly luciferase, asexual blood stage. As to the kind of experiment: microbe, parasite or virus in culture. On the set-up: species or system P. falciparum Dd2-luciferase in human red blood cells; PfLuc Dd2 asexual blood stage luciferase viability, BrightGlo luminescence, 96 h. The note with it: Plasmodium falciparum, DD2, Erythrocyte, read-out: CDD P. falciparum Luc 11pt dose response (96hr, n=2): IC50 (μM), 11-point. As to the method: (§1) A transgenic line of Plasmodium falciparum (Dd2) constitutively expressing firefly luciferase was used for primary and reconfirmation screening. Cultures were maintained in complete media at 5% hematocrit (Human Whole Blood O+) and incubated at 37 °C in a low oxygen environment (3% O2, 5% CO2, and 92% N2). Culture health and parasitemia were tracked by Giemsa staining and bright field microscopy. Prior to dispensing parasites for primary screening, 20 nL of test compounds and 10 nL of control compounds (artemisinin and DMSO) were seeded per well using an Echo 550 acoustic dispenser (Labcyte) for final assay concentrations of 5 and 10 μM, respectively. When parasite cultures reached 3% to 8% parasitemia, as determined by a blood smear, infected blood was centrifuged at 800g for 5 min. […] From this blood mixture, 8 μL was dispensed per well in 1536-well, white, solid-bottom plates (789173-F, Greiner) using a MultiFlo FX Multi-Mode dispenser (BioTek). Plates were covered with a porous metal lid and incubated at 37 °C inside large plastic Ziploc bags filled with a blood gas mixture (3% O2, 5% CO2, and 92% N2) for 96 h. To prevent evaporation, a clean tray of water was included within each bag. Following incubation, BrightGlo was prepared by manufacturer specifications and dispensed at 2 μL per well using the MultiFlo dispenser. Plates were left for 20 min before being read with the ViewLux uHTS microplate imager (PerkinElmer) with a 90 s exposure time at the High Sensitivity Luminescence setting. Raw data were processed using GeneData (v12.0.5), whereby activity was normalized to negative minus positive controls. The correction of Runwise Pattern (Multiplicative) was applied, and compounds were considered hits when activity was reduced by ≥70%. […] Also, plates tested in 11-point dose response format were incubated at both 48 a The primary assay was run at a compound concentration of 5 μM. Briefly, 8 μL of an ABS parasite mixture (∼10,000 parasites) was dispensed into 1536-well plates previously spotted with 64,811 GHCDL compounds (the remaining 3642 library compounds arrived later and were evaluated separately). After a 96 h incubation, 2 μL of luciferin (BrightGlo) was added, and the luminescent signal was measured. Bioluminescence was normalized to DMSO (negative control) and artemisinin-treated (positive control) wells for the single point screens. For this primary screen, assay fidelity was determined on a per plate basis using both the Z′-factor and the potency variance of the positive (artemisinin) and negative (DMSO) controls. The mean Z′ value was 0.60 (range of 0.43–0.75), with only one plate falling below our ideal 0.5 threshold (Figure S1).

The test system is the same in data set [2]. As to the kind of experiment: microbe, parasite or virus in culture. The conditions noted are these: Plasmodium falciparum, DD2, Erythrocyte, read-out: CDD P. falciparum Luciferase 11pt dose response (48hr, n=2): IC50 (μM), 11-point. On the set-up: species or system P. falciparum Dd2-luciferase in human red blood cells; PfLuc Dd2 asexual blood stage luciferase viability, BrightGlo luminescence, 48 h. Here is the method:
as §1, with “From these (Sets 1 and 2),” for “The primary assay was run at a compound concentration of 5 μM. Briefly, 8 μL of an ABS parasite mixture (∼10,000 parasites) was dispensed into 1536-well plates previously spotted with 64,811 GHCDL”, “were resupplied as fresh powders” for “(the remaining 3642 library compounds arrived later”, “and” for “and were”, “in 11-point dose response tests (Pfluc; n = 2)” for “separately). After a 96 h incubation, 2 μL of luciferin (BrightGlo) was added, and the luminescent signal was measured. Bioluminescence was normalized to DMSO (negative control) and artemisinin-treated (positive control) wells”, “two time points.” for “single point screens. For this primary screen, assay fidelity was determined on a per plate basis using both the Z′-factor and the potency variance of the positive (artemisinin) and negative (DMSO) controls. The mean Z′ value was 0.60 (range of 0.43–0.75), with only one plate falling below our ideal 0.5 threshold (Figure S1).”

In the next data set the test system is P. falciparum Dd2. As to the kind of experiment: microbe, parasite or virus in culture. The arrangement: species or system P. falciparum Dd2 in human red blood cells; SYBR Green I asexual blood stage proliferation (DNA) assay, P. falciparum Dd2, 96 h. The note with it: Plasmodium falciparum, DD2, Erythrocyte, 96 h, read-out: CDD P. falciparum Sybr Green I ABS Dd2 Dose Response: IC50 (uM).

In data set [3] the test system is P. falciparum (NF54) stage V gametocytes. As to the kind of experiment: Stage V gametocyte viability assay (MitoTracker Red CMXRos high content imaging). In kind it is cell-based, Plasmodium falciparum. The note with it: Plasmodium falciparum, NF54, 72 h.
The subject of data set [4] is HepG2-A16-CD81 hepatocytes. The data set is described as follows: HepG2 cytotoxicity screening (CellTiter-Glo). (In general: In ATP-based viability assays light output follows the ATP content of the culture.)
The test system of data set [5] is P. berghei liver stage (PbLuc). The data set is described as follows: P. berghei luciferase liver stage (PbLuc) assay in HepG2-A16-CD81 hepatocytes. In kind it is cell-based, Plasmodium berghei. The conditions noted are these: Plasmodium berghei.
For data set [6], the system named is HepG2-A16-CD81 hepatocytes. The data set is described as follows: cells. The arrangement: Uninfected hepatocyte viability, CellTiter-Glo luminescence. The conditions noted are these: sheet CDD Export 1;, cytotoxicity primary screen, read-out: Table S5. Liver stage reconfirmation data / HepG2 Cytotoxicity primary screen (2uM): % Inhibition. As to the method: For the screen, 5 μL of HepG2-A16-CD81 hepatocytes containing 3 × 10^3 cells was seeded into 1536-well plates, which had been prespotted with 10 nL of library compound (2 μM final assay concentration (Figure 1)) and incubated overnight. For PbLuc infected plates, approximately 750 purified sporozoites in 5 μL of screening media were added to each well and incubated for 48 h before measuring luciferase activity. Compounds were tested for toxicity in parallel (see Methods) by measuring uninfected hepatocyte viability using CellTiter-Glo. […] This hit rate was slightly lower than expected for an agnostic library, which prompted us to rescreen the entire library at 10 μM. The PbLuc and cytotoxicity assay plates for this second replicate would be stamped in-house with 50 nL of library compound per well, using the same compound plates as the sexual stage screen described below. All the assay parameters were kept similar, except the change in concentration and shortening the time the compounds spent in each well prior to infection. […] All potential false positive effectors from the CellTiter-Glo assay were filtered from subsequent studies (Table S1). Naturally, there were more primary hits from the 10 μM than the 2 μM screen due to the higher testing concentration. For reconfirmation, we sourced all the hits that inhibited PbLuc at >70% and mean HepG2 at <50% in the 2 μM screen or PbLuc at >60% in both 2 and 10 μM screens and mean HepG2 at <50%. The resulting compounds were acquired as DMSO stocks and retested in the dose response (50–2.82 × 10^–4 μM or 25–141.13 × 10^–6 μM) against PbLuc and uninfected hepatocytes (Table S5). […] The majority of these compounds were weak inhibitors, although 18 submicromolar hits were found (Table S5).

The target in data set [7] is recombinant firefly luciferase (Photinus pyralis, UniProt P08659). As to the kind of experiment: biochemical.
Another data set is described as follows: in vitro. The conditions noted are these: human.

Chain of recombinant firefly luciferase (P08659 whole entry): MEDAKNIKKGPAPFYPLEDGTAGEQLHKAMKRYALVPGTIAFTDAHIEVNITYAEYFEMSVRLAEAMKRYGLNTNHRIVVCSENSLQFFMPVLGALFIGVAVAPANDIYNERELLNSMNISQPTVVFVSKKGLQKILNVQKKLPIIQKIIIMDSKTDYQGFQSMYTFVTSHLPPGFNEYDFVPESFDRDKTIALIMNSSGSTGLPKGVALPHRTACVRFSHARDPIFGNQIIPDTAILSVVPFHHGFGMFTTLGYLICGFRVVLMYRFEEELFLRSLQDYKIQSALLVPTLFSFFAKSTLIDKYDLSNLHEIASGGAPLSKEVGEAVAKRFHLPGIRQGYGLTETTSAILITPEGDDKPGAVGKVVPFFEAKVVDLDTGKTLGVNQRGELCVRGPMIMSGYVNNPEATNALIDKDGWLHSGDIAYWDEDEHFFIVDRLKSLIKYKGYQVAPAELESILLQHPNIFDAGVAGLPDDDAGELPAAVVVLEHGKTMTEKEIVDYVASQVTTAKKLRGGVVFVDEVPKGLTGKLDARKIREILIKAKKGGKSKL

Consider `CN(C)CCCNCCC(c1ccccc1)C1CCOC(C)(C)C1` (centres unmarked) [DDD01026663], for which the IC50 in data set [1] is 0.627 µM; in [2], 2.82 µM; in the data set on P. falciparum Dd2 it was greater than 1.39 µM.

For the compound `CC(C)C[C@H](N)C(=O)N1CC2(CCNCC2)c2cc(Cl)ccc21` [DDD01029528, CC(C)C[C@H](N)C(=O)N1CC2(CCNCC2)C2=CC(Cl)=CC=C12], the IC50 in data set [1] came to 0.553 µM; in [2] it was 1.79 µM; in the data set with P. falciparum Dd2 it was 1.52 µM; in data set [3] (read-out: Stg V Gam dose response IC50 (µM) (n=3), 10-point dose response, n=3, 72 h), 3.02 µM. For the same compound, the inhibition at 2 µM in [3] (read-out: Stg V Gam primary screen: Inhibition % (2uM) (n=2)) turned out to be 49.8%.

Consider `Cc1ccc(-c2ccccc2CC2(C(=O)NC(C)C)CCCNC2)cc1` (centres unmarked) [DDD01056815], for which the IC50 in [1] was 0.863 µM; in data set [2] it was greater than 4.16 µM; in the data set with P. falciparum Dd2, greater than 4.16 µM.

In the case of `CN(C)CCNC(=O)c1sc2ccccc2c1C1CCC(CN)CC1` (centres unmarked) [DDD01058779], the IC50 in data set [1] was determined as 2.3 µM; in [2], 1.31 µM; in the data set with P. falciparum Dd2, 1.65 µM.

`CCOC(=O)C1(Cc2ccccc2-c2ccccc2OC)CCNCC1` [DDD01059034]: the values for the IC50 (in data set [1]; in [2]; with P. falciparum Dd2) were 0.861 µM, 5.11 µM and greater than 4.16 µM, respectively.

For `CNc1nc(C)c(-c2nc(-c3c(C)ncc4c3CCNC4)no2)s1` [DDD01244276], the IC50 in data set [1] came out at 0.337 µM; in data set [2], 0.956 µM; with P. falciparum Dd2, 1.65 µM.

As for `Cc1cc(N2CCC(NC(C)Cc3ccsc3)CC2)nc(N)n1` (centres unmarked) [DDD01252553], the values for the IC50 (in [1]; in data set [2]; in the data set with P. falciparum Dd2) were 0.246 µM, 1.11 µM and 1.01 µM, respectively.

`c1ccc(-c2ccc(C3CNCCO3)nc2)cc1` (centres unmarked) [DDD01270216]: the half-inhibitory concentration (IC50) in data set [1] is 1.44 µM; in data set [2], 1.77 µM; in the data set with P. falciparum Dd2, greater than 12.5 µM. Moreover, the pIC50 in [4] (HepG2-A16-CD81, read-out: HepG2 tox IC50) was less than 4.60; in data set [5] (HepG2-A16-CD81, 48 h, 48 h liver stage, HepG2-A16-CD81, read-out: Pbluc (EEF) IC50), greater than 9.85; in data set [7] (read-out: rLuc IC50), 6.66. Moreover, the inhibition at 2 µM in [6] worked out at 6.27%.

On to `c1ccc(CCCN2CCN(c3ccc4nncn4n3)CC2)cc1` [DDD01295523], for which the results for the IC50 in data set [1] and in data set [2] were 0.912 µM and 3.86 µM, respectively.

For the compound `COc1cc(C(=O)NCc2ccc3c(c2)CCCN3C)cc(OC)c1Br` [DDD01300030], the IC50 in data set [1] was 2.46 µM; in data set [2], 5.74 µM; with P. falciparum Dd2, greater than 12.5 µM.

For `COc1ccc(CNCC2CCN(CC(C)O)CC2)c2ccccc12` (centres unmarked) [DDD01302860], the concentration for half-maximal inhibition (IC50) came to 0.621 µM in data set [1], 1.27 µM in data set [2] and 0.743 µM with P. falciparum Dd2.

With `CCS(=O)(=O)N1[CH]Cc2ccc(NC(=O)Nc3cccc(C#N)c3)cc21` [UCSD-0785775], the “HepG2 cytotoxicity 12pt dose response: Maximum inhibition (%)” value in [4] (12pt dose response, maximum inhibition) was found to be 52.4%. The Emax in data set [5] (HepG2-A16-CD81, 48 h, 12pt dose response, maximum inhibition) was 91.5%; in [7] (dose response, maximum inhibition, read-out: rLuc inhibition dose response: Maximum inhibition (%)), 6.44%. For the same compound, the inhibition at 2 µM in data set [5] (HepG2-A16-CD81, primary screen, 2 uM) was -22.1%; in “in vitro”, -2.63%. The inhibition at 10 µM in data set [5] (HepG2-A16-CD81, primary screen, 10 uM) was 86.7%; in “in vitro”, 39.2%. Moreover, the pIC50 in data set [5] (HepG2-A16-CD81, read-out: PbLuc 12pt dose response: IC50) is 5.87; in the data set “in vitro”, less than 4.60; in data set [7] (dose response, read-out: rLuc inhibition dose response: IC50), less than 4.60.

For `O=C1[C@@H]2CC[C@@H](CN(c3ncnc4ccsc34)C2)N1CC1CC1` [UCSD-0827296], in “in vitro”, the inhibition at 2 µM was -8.03%.

Turning to `O=C1NCCN1C1CCCN(Cc2coc(-c3ccc(F)cc3)n2)C1` (centres unmarked) [UCSD-0845351], the inhibition at 2 µM in “in vitro” was determined as 0.09%.
